Results on four compounds are retold here after US9809853B2, “Calcium-activated chloride channel involved in human sweat formation” (BRAIN Biotechnology Research and Information Network AG, priority 2012, dated 2017).

The target of experiment [1] is T1, CaCC (Ca^2+-activated chloride channels) in NCL-SG3-hsYFP cells (Homo sapiens, UniProt Q5XXA6).
T1 sequence (Q5XXA6 1-986): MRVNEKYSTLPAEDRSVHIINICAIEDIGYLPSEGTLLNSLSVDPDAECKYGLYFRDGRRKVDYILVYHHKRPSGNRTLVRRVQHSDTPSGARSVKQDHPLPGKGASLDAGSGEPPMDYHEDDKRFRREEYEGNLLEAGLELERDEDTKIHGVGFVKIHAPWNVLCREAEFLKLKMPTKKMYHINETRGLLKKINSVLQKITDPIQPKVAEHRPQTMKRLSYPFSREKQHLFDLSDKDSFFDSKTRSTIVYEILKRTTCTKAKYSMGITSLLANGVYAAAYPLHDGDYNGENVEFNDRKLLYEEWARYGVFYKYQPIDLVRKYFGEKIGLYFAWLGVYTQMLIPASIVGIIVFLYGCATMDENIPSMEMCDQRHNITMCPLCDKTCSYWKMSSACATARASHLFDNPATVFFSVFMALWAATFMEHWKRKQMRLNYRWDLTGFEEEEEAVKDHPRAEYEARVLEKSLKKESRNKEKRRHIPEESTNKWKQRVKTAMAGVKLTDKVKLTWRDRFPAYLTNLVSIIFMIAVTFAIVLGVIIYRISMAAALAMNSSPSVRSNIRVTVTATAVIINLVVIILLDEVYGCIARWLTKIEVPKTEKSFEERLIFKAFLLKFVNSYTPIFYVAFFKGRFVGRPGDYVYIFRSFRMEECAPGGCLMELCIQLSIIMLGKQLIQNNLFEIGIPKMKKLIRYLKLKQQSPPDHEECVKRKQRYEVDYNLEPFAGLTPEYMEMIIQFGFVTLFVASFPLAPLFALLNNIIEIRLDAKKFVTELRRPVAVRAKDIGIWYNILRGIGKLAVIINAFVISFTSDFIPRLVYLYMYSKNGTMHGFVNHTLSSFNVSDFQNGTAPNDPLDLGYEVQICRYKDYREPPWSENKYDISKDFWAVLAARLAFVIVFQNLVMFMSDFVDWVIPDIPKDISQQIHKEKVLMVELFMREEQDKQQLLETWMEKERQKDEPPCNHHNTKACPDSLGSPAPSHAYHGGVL
The experiment is described as follows: hsYFP fluorescence quenching (Cl^− efflux/I^− influx) assay in NCL-SG3-hsYFP CaCC activity sensor cells. Type of experiment: cell-based. To be noted: for Effect on hsYFP quenching by Cl^− efflux/I^− influx mediated by ATP: 25 μM; for Dose dependence of inhibition of CaCC-mediated Cl^− efflux: increasing inhibitor concentrations, stimulation with 330 μM ATP. The procedure: The halide inside the cell functionally interacts with the halide-sensitive cytoplasmic indicator protein, which leads to a quenching of the signal provided by the halide-sensitive cytoplasmic indicator protein. The more halide (such as e.g. iodide) flows into the cell, the weaker the signal emitted by the halide-sensitive cytoplasmic indicator protein becomes. This alteration of the signal emitted by the halide-sensitive cytoplasmic indicator protein is determined in a third step of the method of the invention. Due to the fact that the influx of halide into the cell is proportional to the efflux of chloride ions, the halide influx is used as a direct measure for chloride secretion. To determine the amount of chloride secretion, the fluorescence decrease is plotted against time (Δfluorescence/Δtime) and the initial slope of the resulting graph represents the iodide influx rate (sec^−1), which in turn is directly proportional to the chloride efflux rate, representing the amount of chloride secretion per time. In a fourth step, this amount of chloride secretion determined in the presence of a test compound is compared to the amount of chloride secretion determined in the absence of a said compound.
Effect of CaCC inhibitors on sweat gland-specific Ca^2+-dependent […] and proportional I^− influx was determined using NCL-SG3-hsYFP cells. Quenching of intracellular hsYFP fluorescence was measured and plotted over time. Exemplary raw data (B) and fitted curves are shown (A). NCL-SG3-hsYFP cells were incubated with 50 μM tannic acid (TA), 25 μM niflumic acid (NFA), 25 μM 5-nitro-2-(3-phenylpropyl-amino) benzoic acid (NPPB), 100 μM epigallocatechin-3-gallate (EGCG) for 15 min and then stimulated with 330 μM ATP.
Sweat gland-specific Ca^2+-dependent Cl^− efflux and a proportional I^− influx was determined using NCL-SG3-hsYFP cells. Quenching of intracellular hsYFP fluorescence was measured and plotted over time. Exemplary fitted curves are shown. NCL-SG3-hsYFP cells were incubated with increasing concentrations of tannic acid (TA) and then stimulated with 330 μM ATP. […] NCL-SG3-hsYFP cells were incubated with increasing concentrations of CaCC inhibitors and quenching of intracellular hsYFP fluorescence was measured after stimulation with ATP. The rate of […] (sec^−1), which is proportional to Ca^2+-dependent […] was calculated from the initial slope of the measured hsYFP fluorescence (ΔYFP fluorescence/Δtime) and is a direct measure of CaCC activity. IC50 values were determined by plotting the percentage of residual CaCC activity against the individual inhibitor concentration.
NCL-SG3-hsYFP cells were routinely cultivated in Williams' Medium E supplemented with 9% Fetal Calf Serum, 3.5 mM Glutamine, 9 ng/μl Hydrocortisone, Insulin-Transferrin-Selenium-Supplement (PAA Laboratories) at 37° C. and 5% CO2. For microplate assays, 20,000 cells were seeded in 96-well black-walled, clear bottom microplates (Costar) and cultivated for 2 days until cells reached confluency. Cells were washed three times with 100 μl modified Krebs-Henseleit (KH) buffer (137 mM NaCl, 2.7 mM KCl, 1.2 mM MgSO4, 1.2 mM KH2PO4, 4.2 mM NaHCO3, 1.3 mM CaCl2, 10 mM HEPES, pH 7.4) and incubated with the test compound in 50 μl KH-buffer for 15 min at 37° C. and 5% CO2. Microplates were transferred into an automated fluorescence plate reader (FlexStation®, Molecular Devices) and cellular hsYFP fluorescence was continuously recorded every 3.5 sec until end of the experiment (excitation at 485 nm, emission at 535 nm, cutoff 515 nm).

In experiment [2] the test system is CaCCs in human colonic epithelial cells. To be noted: reference (44); cited from earlier work.

As for `C[C@H](CCC(=O)O)C[C@H](C)C[C@H](C)C(=O)/C=C(\O)[C@H](C)C[C@H](C)C/C=C/[C@@H](C)[C@@H](O)[C@@H](C)[C@@H](O)C[C@@H]1CC[C@@](C)([C@H]2CC[C@@](C)([C@@H](C)O)O2)O1` [ionomycin], the “Quenching of hsYFP fluorescence after addition of Ca^2+-elevating agent” value in experiment [1] (1 μM) is on record as “quick quenching of the hsYFP fluorescence followed by a slow recovery”. With epigallocatechin-3-gallate [EGCG], in experiment [1] (100 μM, 15 min, then 330 μM ATP), the “Effect on CaCC-mediated Cl^− efflux (hsYFP quenching) mediated by ATP” value is given as “no effect”. In experiment [2], the “Inhibition of CaCCs / Cl^− currents” value is reported as “effectively inhibits”. Regarding `O=C(O)c1cccnc1Nc1cccc(C(F)(F)F)c1` [NFA, niflumic acid], in experiment [1] (15 min, then 330 μM ATP), the “Effect on hsYFP quenching by Cl^− efflux/I^− influx mediated by ATP” value was “significant reduction of hsYFP quenching”. Moreover, the “Dose dependence of inhibition of CaCC-mediated Cl^− efflux” value in experiment [1] is reported as “antagonized CaCC-mediated Cl^− efflux in a dose-dependent manner”. In the same order, the values of `O=C(O)c1cc([N+](=O)[O-])ccc1NCCCc1ccccc1` [NPPB, 5-nitro-2-(3-phenylpropyl-amino) benzoic acid] are “significant reduction of hsYFP quenching” and “antagonized CaCC-mediated Cl^− efflux in a dose-dependent manner”.
